{"source": "patent US20010051630A1", "about": "“Use of hydroxylamine derivatives, and method and preparations for increasing the tolerance of field crops against weather stresses” (priority 1997, published 2001)", "key": {"HMv09 inbred maize line": {"tested_on": "HMv09 inbred maize line", "assay": "CSVT, seeds soaked in active agent, HMv09 maize", "type": "in vivo", "settings": "seeds soaked in 10 mg/l active agent", "experimental": "(§1) In this experiment the tolerance of maize, soybean and pepper seeds treated with the active agent against cold was tested. This test imposed temperature and oxygen deficiency stresses on the seeds and was carried out according to Barla-Szabó and Dolinka CSVT (Complex Stressing Vigour Test). For a single test, two hundred seeds were soaked for 48 hours at 25° C. and another 48 hours at 5° C in 150 ml distilled water containing the active agent in 10 mg/l concentration. Following the 96 hours of soaking, the seeds were further germinated between rolled wet paper for 96 hours at 25° C. There were 25 seeds in each roll, the rolls were placed vertically into containers and covered with a plastic bag in order to reduce evaporation. During the whole procedure the seeds were kept in darkness. At the end of the experiment the number of normally developing and ungerminated seeds were recorded. The length of the normal seedlings was measured and the average length of the five longest seedlings was calculated. Seedlings longer than 0.33 times the average length of the five longest seedlings were considered to be of high vigour, and low vigour seedlings were shorter than this length."}, "[1]": {"tested_on": "maize of high chilling tolerance (HT) population", "assay": "CSVT, maize population of high chilling tolerance (HT)", "type": "in vivo", "experimental": "as §1, with “darkness.” for “darkness. At the end of the experiment the number of normally developing and ungerminated seeds were recorded. The length of the normal seedlings was measured and the average length of the five longest seedlings was calculated. Seedlings longer than 0.33 times the average length of the five longest seedlings were considered to be of high vigour, and low vigour seedlings were shorter than this length.”\n(§2) At the end of the experiment the number of normally developing and ungerminated seeds were recorded. The length of the normal seedlings was measured and the average length of the five longest seedlings was calculated. Seedlings longer than 0.33 times the average length of the five longest seedlings were considered to be of high vigour, and low vigour seedlings were shorter than this length.\nIn the case of a further experiment with maize of low chilling tolerance (LT) and high chilling tolerance (HT) populations [Ref: P. Landi, E. Frascaroli, A. Lovato; EUPHYTICA 64 21-29 (1992)], the following positive effects were found (Table 3.)."}, "McCall soybeans": {"tested_on": "McCall soybeans", "assay": "CSVT, McCall soybeans", "type": "in vivo, soybean", "experimental": "as §1, with “darkness.” for “darkness. At the end of the experiment the number of normally developing and ungerminated seeds were recorded. The length of the normal seedlings was measured and the average length of the five longest seedlings was calculated. Seedlings longer than 0.33 times the average length of the five longest seedlings were considered to be of high vigour, and low vigour seedlings were shorter than this length.”\nas §2\nWhen applying the CSVT test, the following results were obtained (Table 4.)."}, "green peppers": {"tested_on": "green peppers", "assay": "CSVT, green peppers", "type": "in vivo, pepper", "experimental": "as §1, with “darkness.” for “darkness. At the end of the experiment the number of normally developing and ungerminated seeds were recorded. The length of the normal seedlings was measured and the average length of the five longest seedlings was calculated. Seedlings longer than 0.33 times the average length of the five longest seedlings were considered to be of high vigour, and low vigour seedlings were shorter than this length.”\nas §2\nUnder the circumstances of the CSVT test, they increased the length of the sprouts and the roots along with the proportion of the high vigour seedlings. […]"}, "Seaway bean cultivar": {"tested_on": "Seaway bean cultivar", "assay": "Drought tolerance of beans, part a (5 days hardening)", "type": "in vivo", "settings": "7 days without water, one week regeneration", "from_the_text": "(§3) Based on the experiences of our preliminary experiments, the plants were hardened before the application of the active agent by withholding the water for a few days, until the first signs of withering appeared. Then the plants were watered and the active agent was either dissolved in the water, or sprayed to the plants directly. Afterwards, the plants were subjected to different periods of drought according to the given experiment, watered again, and after a week-long regeneration period, the survival ratio was determined.\na) Seaway bean cultivar was hardened for 5 days by withholding the water. Afterwards the plantlets were watered for two days normally. During this time, a 10 mg/liter and 100 mg/liter concentration solution of the active agent was applied two times a day dissolved in water or by direct spraying. Then the water was withheld for 7 days, and after a week-long regeneration period, the survival ratio was determined."}, "bean plants (cv. Seaway)": {"tested_on": "bean plants (cv. Seaway)", "assay": "Drought tolerance of beans, part b (7 days hardening)", "type": "in vivo", "settings": "7 days without water, 10 mg/liter and 100 mg/liter solution named, table does not say which", "from_the_text": "as §3\nb) In this experiment, bean plants (cv. Seaway) were hardened for 7 days instead of the 5 days described in Part a. Then a 10 mg/liter and 100 mg/liter concentration solution of the active agent was applied two times a day for two days. Then 7 days without water followed, and after a week-long regeneration period, the results of the experiment were evaluated."}, "bean cv. Seaway": {"tested_on": "bean cv. Seaway", "assay": "Frost tolerance of beans", "type": "in vivo", "settings": "−2° C. for 8 hours", "experimental": "Seedlings of bean cv. Seaway were cultivated under normal conditions for the first two weeks, then they were treated with 10 mg/liter and 100 mg/liter concentration solutions of the examined active agents 2 and 1 days before the initiation of the frost tolerance experiments. In the experiment, the plants were kept at −2° C. for 8 hours, then grew under normal conditions for I week, and the survival ratio was determined. 4 trays were used for each experiment and 6 seeds were planted in each tray."}, "Mo 17 maize inbred line": {"tested_on": "Mo 17 maize inbred line", "assay": "Chilling tolerance of maize in a gradient chamber", "type": "in vivo", "experimental": "The experiment was performed using the Mo 17 maize inbred line. The seeds were coated with a 2% solution of the examined compound dissolved in 2 ml polyvinylalcohol before germination, where the above quantity of solution is applied for 100 seeds. The seeds were germinated for 3 days wrapped in wet filter paper, they were sown and then cultivated in gradient chamber for 6 weeks. In the gradient chamber, the temperature was maintained on a scale between 18 and 12° C., with differences of 1° C. This was followed by a one week regeneration at 23/20° C. temperature.\nIn the experiment, the length of the plants was measured 16, 31 and 43 days after the sowing, and at the end of the experiment the fresh weight of the plants was measured. The experiment was performed on 4 plants at each temperature and by each treatment."}}, "note": "Marks after values point to notes of the source that are not given here."}
{"smiles": "CC(C)(C)NCC(O)CONC(=O)c1cccc(C(F)(F)F)c1.Cl", "note": "(centres unmarked) [Compound 1, N-[2-hydroxy-3-(1,1-dimethylethyl-amino)propoxy]-3-trifluoromethyl-benzamide monohydrochloride]", "values": [{"measurement": "Ratio of high vigour plants (%)", "setting": "HMv09 inbred maize line", "result": "49* %"}, {"measurement": "Ratio of high vigour plants %, HT", "setting": "[1]", "result": "98* %"}, {"measurement": "Ratio of high vigour plants (%)", "setting": "McCall soybeans", "result": "43* %"}, {"measurement": "Ratio of high vigour plants (%)", "setting": "green peppers", "result": "47* %"}, {"measurement": "survival (%), Spraying (100 mg/l)", "setting": "Seaway bean cultivar", "result": "71* %"}, {"measurement": "survival (%), Watering (10 mg/l)", "setting": "Seaway bean cultivar", "result": "30* %"}, {"measurement": "survival (%), Watering (100 mg/l)", "setting": "Seaway bean cultivar", "result": "41* %"}, {"measurement": "Survival (%)", "setting": "bean plants (cv. Seaway)", "result": "14* %"}, {"measurement": "Survival (%)", "setting": "bean cv. Seaway; spraying, 100 mg/l", "result": "40* %"}, {"measurement": "Survival (%)", "setting": "bean cv. Seaway; watering, 10 mg/l", "result": "25* %"}, {"measurement": "Length (cm)", "setting": "Mo 17 maize inbred line; 12° C., 16 days", "result": 5.0, "unit": "cm"}, {"measurement": "Length (cm)", "setting": "Mo 17 maize inbred line; 12° C., 31 days", "result": 7.9, "unit": "cm"}, {"measurement": "FW (g), fresh weight", "setting": "Mo 17 maize inbred line; 12° C., 43 days", "result": 1.2, "unit": "g"}, {"measurement": "Length (cm)", "setting": "Mo 17 maize inbred line; 12° C., 43 days", "result": 18.9, "unit": "cm"}, {"measurement": "Length (cm)", "setting": "Mo 17 maize inbred line; 13° C., 16 days", "result": 6.0, "unit": "cm"}, {"measurement": "Length (cm)", "setting": "Mo 17 maize inbred line; 13° C., 31 days", "result": 10.1, "unit": "cm"}, {"measurement": "FW (g), fresh weight", "setting": "Mo 17 maize inbred line; 13° C., 43 days", "result": 1.0, "unit": "g"}, {"measurement": "Length (cm)", "setting": "Mo 17 maize inbred line; 13° C., 43 days", "result": 16.0, "unit": "cm"}, {"measurement": "Length (cm)", "setting": "Mo 17 maize inbred line; 14° C., 16 days", "result": 7.6, "unit": "cm"}, {"measurement": "Length (cm)", "setting": "Mo 17 maize inbred line; 14° C., 31 days", "result": 15.4, "unit": "cm"}, {"measurement": "FW (g), fresh weight", "setting": "Mo 17 maize inbred line; 14° C., 43 days", "result": 2.7, "unit": "g"}, {"measurement": "Length (cm)", "setting": "Mo 17 maize inbred line; 14° C., 43 days", "result": 25.9, "unit": "cm"}, {"measurement": "Length (cm)", "setting": "Mo 17 maize inbred line; 15° C., 16 days", "result": 10.0, "unit": "cm"}, {"measurement": "Length (cm)", "setting": "Mo 17 maize inbred line; 15° C., 31 days", "result": 17.7, "unit": "cm"}, {"measurement": "FW (g), fresh weight", "setting": "Mo 17 maize inbred line; 15° C., 43 days", "result": 3.6, "unit": "g"}, {"measurement": "Length (cm)", "setting": "Mo 17 maize inbred line; 15° C., 43 days", "result": 28.5, "unit": "cm"}, {"measurement": "Length (cm)", "setting": "Mo 17 maize inbred line; 16° C., 16 days", "result": 15.2, "unit": "cm"}, {"measurement": "Length (cm)", "setting": "Mo 17 maize inbred line; 16° C., 31 days", "result": 24.8, "unit": "cm"}, {"measurement": "FW (g), fresh weight", "setting": "Mo 17 maize inbred line; 16° C., 43 days", "result": 4.5, "unit": "g"}, {"measurement": "Length (cm)", "setting": "Mo 17 maize inbred line; 16° C., 43 days", "result": 32.3, "unit": "cm"}, {"measurement": "Length (cm)", "setting": "Mo 17 maize inbred line; 17° C., 16 days", "result": 17.0, "unit": "cm"}, {"measurement": "Length (cm)", "setting": "Mo 17 maize inbred line; 17° C., 31 days", "result": 27.7, "unit": "cm"}, {"measurement": "FW (g), fresh weight", "setting": "Mo 17 maize inbred line; 17° C., 43 days", "result": 5.5, "unit": "g"}, {"measurement": "Length (cm)", "setting": "Mo 17 maize inbred line; 17° C., 43 days", "result": 36.5, "unit": "cm"}, {"measurement": "Length (cm)", "setting": "Mo 17 maize inbred line; 18° C., 16 days", "result": 13.2, "unit": "cm"}, {"measurement": "Length (cm)", "setting": "Mo 17 maize inbred line; 18° C., 31 days", "result": 28.4, "unit": "cm"}, {"measurement": "FW (g), fresh weight", "setting": "Mo 17 maize inbred line; 18° C., 43 days", "result": 6.0, "unit": "g"}, {"measurement": "Length (cm)", "setting": "Mo 17 maize inbred line; 18° C., 43 days", "result": 37.0, "unit": "cm"}]}
